# Measurements reported in patent US10376488B2, “Use of flavonoids in manufacturing compositions for wound healing” (ONENESS BIOTECH CO., Ltd, priority 2014, dated 2019).
# Marks after values point to notes of the source that are not given here.
# Test system: diabetic wound
# Assay: Diabetic wound healing test in STZ-induced hyperglycemic rats
# Format: in vivo
# Set-up: CT50: wound half-closure time: unit not given beside the values
# Settings: 0.5% ointment applied to wounds, mean±SEM, n = 6
# Procedure: After rats' body weight reach 300 g, the induction of hyperglycemia was carried out with streptozotocin (STZ) (65 mg/kg, ip administration). […] Hyperglycemic animals with a body weight less than 300 g were excluded, and random grouping was performed. Animals were anesthetized with pentobarbital and then their backs were shaved and disinfected. Three pieces of animal skin (full thickness) were harvested from the back of the animals at points 4, 6 and 8 cm from the midpoint of the two scapula with an 1- cm-diameter drilling round knife.
# Wounds of each animal were applied with testing agents. New skins were harvested for examination after the end of experiment.
# Analyzing the areas of the three wounds on the back of each rat by image pro with the area on day zero as the original wound area. The original wound area is subtracted by the wound area at each time point and then divided by the original wound area to serve as the percentage of wound healing. The average value of the three percentages of wound healing of each rat is considered as the respective would healing extent of each rat. The number of rats was 6 for each group of each test. Data is expressed as mean±SEM. P value is calculated for the test results by t-test against control group, where P<0.05 indicates significant differences, denoted *.
# A 0.5% cirsimaritin composition was prepared in an ointment form, and was applied to the rats as treated above. The comparison between the percentages of wound healing at 9, 11, 13, and 15 days after administration, and the untreated control group is shown below. There were significant differences for each group.
smiles,measurement,setting,value
COc1cc2oc(-c3ccc(O)cc3)cc(=O)c2c(O)c1OC [cirsimaritin],CT50: wound half-closure time,,10.7 ± 0.4*
same,percentage of wound healing,9 days after administration,37.2 ± 3.9* %
same,percentage of wound healing,11 days after administration,51.5 ± 3.1* %
same,percentage of wound healing,13 days after administration,70.6 ± 3.5* %
same,percentage of wound healing,15 days after administration,83.3 ± 3.2* %
